Measurements from ChEMBL document CHEMBL1201862, “PubChem BioAssay data set” (2004).
Calls of active or inactive are those of the source.

Assays:
Paired box protein Pax-8 = Paired box protein Pax-8 (Homo sapiens, UniProt Q06710); experiment: PAX8 transcriptional activity inhibition in RMG-I – RMG-I cells, luciferase, cherry-pick, dose response (AID 687027); type: functional, cell-based;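 further: luciferase reporter driven by Pax8 target thyroperoxidase promoter measured by SteadyGlo luminescence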
[1] = target: T1, Replicative DNA helicase DnaB (Mycobacterium tuberculosis, UniProt P9WMR3); experiment: DnaB intein splicing inhibitors, dose response, biochemical, cell-free fluorescence (AID 449749); type: functional
T1 sequence (P9WMR3 whole entry): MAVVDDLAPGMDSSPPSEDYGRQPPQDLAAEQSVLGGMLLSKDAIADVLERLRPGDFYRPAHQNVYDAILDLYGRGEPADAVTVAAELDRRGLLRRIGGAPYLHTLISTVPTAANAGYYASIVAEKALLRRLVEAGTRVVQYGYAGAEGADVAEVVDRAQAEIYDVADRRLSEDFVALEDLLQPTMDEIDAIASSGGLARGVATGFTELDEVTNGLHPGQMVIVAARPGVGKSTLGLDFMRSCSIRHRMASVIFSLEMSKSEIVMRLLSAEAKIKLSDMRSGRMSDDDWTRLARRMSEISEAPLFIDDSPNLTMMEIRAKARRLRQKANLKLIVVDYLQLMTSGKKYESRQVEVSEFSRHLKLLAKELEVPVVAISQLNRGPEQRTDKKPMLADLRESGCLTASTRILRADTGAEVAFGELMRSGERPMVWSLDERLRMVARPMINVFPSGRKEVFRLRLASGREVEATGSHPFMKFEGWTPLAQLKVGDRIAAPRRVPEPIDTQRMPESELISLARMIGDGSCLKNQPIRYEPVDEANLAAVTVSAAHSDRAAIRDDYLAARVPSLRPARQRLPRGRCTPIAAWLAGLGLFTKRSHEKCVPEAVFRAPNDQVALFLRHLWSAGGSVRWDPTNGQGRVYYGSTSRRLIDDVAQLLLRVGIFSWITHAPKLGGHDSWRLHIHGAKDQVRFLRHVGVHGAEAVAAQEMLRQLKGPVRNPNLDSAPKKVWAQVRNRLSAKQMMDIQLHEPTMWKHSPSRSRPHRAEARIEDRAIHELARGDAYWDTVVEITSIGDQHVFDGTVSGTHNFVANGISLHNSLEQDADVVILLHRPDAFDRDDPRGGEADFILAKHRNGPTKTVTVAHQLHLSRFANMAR

[2] = reduction of Shn3 3'UTR-driven luciferase in osteoblasts – cell-based, Clone20 osteoblasts, firefly luciferase, cherry-picked, dose response (AID 624132); type: functional;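 further: firefly luciferase luminescence from reporter carrying the Shn3 3'UTR in osteoblasts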
Protein RecA = target: T2, Protein RecA (Mycobacterium tuberculosis, UniProt P9WHJ3); experiment: Fluorescence Cell-Free Homogeneous Dose Retest to Identify Inhibitors of RecA-Intein Splicing Activity. [Related pubchem assays (depositor defined):AID2097, AID2223, AID489010, AID492950]; type: functional
T2 sequence (P9WHJ3 whole entry): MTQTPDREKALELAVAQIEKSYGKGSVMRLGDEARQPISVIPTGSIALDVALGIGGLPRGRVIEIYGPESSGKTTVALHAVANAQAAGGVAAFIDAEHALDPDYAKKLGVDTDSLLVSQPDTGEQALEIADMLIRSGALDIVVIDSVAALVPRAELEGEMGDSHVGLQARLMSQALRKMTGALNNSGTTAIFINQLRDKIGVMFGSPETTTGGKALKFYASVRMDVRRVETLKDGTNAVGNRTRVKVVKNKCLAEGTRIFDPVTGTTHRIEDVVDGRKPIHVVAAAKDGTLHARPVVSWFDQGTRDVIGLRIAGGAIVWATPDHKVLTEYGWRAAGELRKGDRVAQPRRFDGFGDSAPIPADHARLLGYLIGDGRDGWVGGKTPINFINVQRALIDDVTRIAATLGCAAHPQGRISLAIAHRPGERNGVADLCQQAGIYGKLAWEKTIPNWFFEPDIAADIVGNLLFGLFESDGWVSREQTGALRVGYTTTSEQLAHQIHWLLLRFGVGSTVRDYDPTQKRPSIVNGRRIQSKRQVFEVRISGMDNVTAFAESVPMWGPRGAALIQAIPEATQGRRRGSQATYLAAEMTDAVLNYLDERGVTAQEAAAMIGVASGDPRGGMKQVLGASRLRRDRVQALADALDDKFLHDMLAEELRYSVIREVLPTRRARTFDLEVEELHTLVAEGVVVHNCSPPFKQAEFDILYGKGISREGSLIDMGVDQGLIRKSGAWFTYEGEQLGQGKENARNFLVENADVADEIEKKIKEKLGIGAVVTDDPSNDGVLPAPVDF

[3] = non-specific 3'UTR reporter inhibition in Clone20-Shn3RL – cell-based, Renilla luciferase, cherry-picked, counter-screen for Shn3 inhibitor project, dose response (AID 624133); type: functional
[4] = target: Photoreceptor-specific nuclear receptor (Homo sapiens, UniProt Q9Y5X4); type: functional, cell-based;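 further: CHO-S cells with Gal4-NCOR and VP16-NR2E3 two-hybrid luciferase reporter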
INS1 = experiment: INS-1E survival protection against cytokine death – cell-based, luminescence, retest, dose response (AID 449756); type: functional; details: Rattus norvegicus;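 further: cell death triggered by IL-1 beta plus TNF-alpha plus IFN-gamma mixture; protective hits raise ATP signal compared with cytokine alone wells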
[5] = loss of viability in HepG2 cells – cell-based, CellTiter-Glo, cherry-picked, cytotoxicity control for Shn3 inhibitor project, dose response (AID 624134); type: functional
[6] = viability inhibitors of stage V gametocytes – luminescence, dose response (AID 1117278); type: functional, cell-based;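 further: gametocytes exposed to compound for 24 hours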
[7] = viability loss in human Jurkat cells – cell-based, luminescence, cytotoxicity control for P. falciparum gametocyte viability project, dose response (AID 1117277); type: functional;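 further: potency reflects loss of cellular ATP meaning fewer viable cells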
[8] = target: T3, DNA repair and recombination protein RAD54-like (Homo sapiens, UniProt Q92698); experiment: RAD54 Holliday junction migration blockers – biochemical, fluorescence, cherry-picked samples, dose series, confirmation (AID 651657); type: functional
T3 sequence (Q92698 whole entry): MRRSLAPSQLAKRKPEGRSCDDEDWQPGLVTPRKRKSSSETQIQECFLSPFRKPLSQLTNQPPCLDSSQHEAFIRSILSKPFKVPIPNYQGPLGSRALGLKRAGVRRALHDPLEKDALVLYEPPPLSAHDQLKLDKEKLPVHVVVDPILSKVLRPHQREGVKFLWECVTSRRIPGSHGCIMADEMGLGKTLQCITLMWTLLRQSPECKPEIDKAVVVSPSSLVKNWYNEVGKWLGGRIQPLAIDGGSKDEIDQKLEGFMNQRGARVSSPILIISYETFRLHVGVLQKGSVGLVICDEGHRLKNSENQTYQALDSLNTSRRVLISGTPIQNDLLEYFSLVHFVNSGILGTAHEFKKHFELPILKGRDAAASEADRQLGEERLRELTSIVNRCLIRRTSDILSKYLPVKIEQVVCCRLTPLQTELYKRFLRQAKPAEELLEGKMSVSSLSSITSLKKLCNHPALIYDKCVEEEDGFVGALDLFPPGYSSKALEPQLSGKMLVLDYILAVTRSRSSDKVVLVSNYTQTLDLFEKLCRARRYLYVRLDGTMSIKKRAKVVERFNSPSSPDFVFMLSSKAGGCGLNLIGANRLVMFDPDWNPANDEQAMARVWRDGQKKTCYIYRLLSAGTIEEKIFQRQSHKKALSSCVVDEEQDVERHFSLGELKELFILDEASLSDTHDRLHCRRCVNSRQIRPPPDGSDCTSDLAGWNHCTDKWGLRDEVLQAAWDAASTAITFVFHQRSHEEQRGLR

[9] = target: T4, DNA repair protein RAD52 homolog (Homo sapiens, UniProt P43351); type: functional, biochemical
T4 sequence (P43351 whole entry): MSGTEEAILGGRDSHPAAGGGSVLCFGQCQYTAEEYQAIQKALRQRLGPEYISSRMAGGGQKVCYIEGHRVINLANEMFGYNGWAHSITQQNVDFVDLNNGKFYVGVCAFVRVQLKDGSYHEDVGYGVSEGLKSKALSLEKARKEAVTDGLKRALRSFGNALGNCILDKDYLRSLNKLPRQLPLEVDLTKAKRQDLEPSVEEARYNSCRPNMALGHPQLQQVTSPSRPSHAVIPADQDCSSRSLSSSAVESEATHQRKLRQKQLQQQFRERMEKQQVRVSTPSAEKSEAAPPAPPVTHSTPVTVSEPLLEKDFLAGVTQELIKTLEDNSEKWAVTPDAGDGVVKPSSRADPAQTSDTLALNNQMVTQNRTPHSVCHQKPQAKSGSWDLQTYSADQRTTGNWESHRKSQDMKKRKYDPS

[10] = NIH3T3 cell viability loss – ATP luminescence, mouse fibroblasts, counter-screen, dose response (AID 2010); type: functional, cell-based;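 further: cells exposed to compound for about 90 hours before reading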
[11] = Trypanosoma cruzi growth suppression in host cells – NIH3T3 host cells, beta-gal luminescence, confirmation (AID 2044); type: functional, cell-based;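 further: intracellular parasites grown in NIH/3T3 mouse fibroblasts as host cells; luminescent beta-galactosidase reporter signal from transgenic T. cruzi replicating inside host cells; inhibitors lower the luminescence signal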
Albumin = Albumin (Bos taurus, UniProt P02769); experiment: Counterscreen for inhibitors of T-cell receptor (TCR)-CD3 interaction: Fluorescence-based biochemical high throughput dose response assay to identify inhibitors of T-cell receptor (TCR)-CD3 interaction using a TAMRA-labeled BSA probe.; type: functional
Prothrombin = Prothrombin (Homo sapiens, UniProt P00734); experiment: Thrombin 1536 HTS Dose Response Confirmation. [Related pubchem assays: 1046 (Thrombin 1536 HTS; hits were confirmed in this assay)]; type: functional
cells = type: functional
Caspase-6 = target: T5, Caspase-6 (Homo sapiens, UniProt P55212); experiment: inhibition of CASP6 peptide cleavage – biochemical, VEID-R110 fluorescence, cherry-pick, dose response (AID 720632)
T5 sequence (P55212 whole entry): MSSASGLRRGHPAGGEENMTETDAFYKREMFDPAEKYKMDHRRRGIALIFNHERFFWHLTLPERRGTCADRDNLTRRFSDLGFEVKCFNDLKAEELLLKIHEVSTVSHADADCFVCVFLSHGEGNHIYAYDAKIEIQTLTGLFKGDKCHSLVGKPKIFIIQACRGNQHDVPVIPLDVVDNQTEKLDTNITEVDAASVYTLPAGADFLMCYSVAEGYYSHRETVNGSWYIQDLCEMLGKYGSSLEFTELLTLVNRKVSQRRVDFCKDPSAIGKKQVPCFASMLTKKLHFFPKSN

[12] = target: T6, Carboxy-terminal domain RNA polymerase II polypeptide A small phosphatase 1 (Homo sapiens, UniProt Q9GZU7); experiment: CTDSP1 inhibitors, concentration-response, biochemical, absorbance readout, ultra-high-throughput screen actives (AID 540297); type: functional
T6 sequence (Q9GZU7 whole entry): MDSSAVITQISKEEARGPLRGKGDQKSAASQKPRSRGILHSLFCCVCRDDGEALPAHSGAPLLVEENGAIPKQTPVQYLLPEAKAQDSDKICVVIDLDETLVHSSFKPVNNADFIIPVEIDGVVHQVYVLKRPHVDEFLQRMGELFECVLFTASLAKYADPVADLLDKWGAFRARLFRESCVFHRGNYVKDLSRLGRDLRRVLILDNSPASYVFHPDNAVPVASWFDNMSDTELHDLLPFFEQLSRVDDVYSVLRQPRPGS

[13] = target: T7, Small ubiquitin-related modifier 1 (Homo sapiens, UniProt P63165); experiment: SUMO1 protein-protein binding blockers, potency – biochemical, FRET, dose response (AID 624383); type: functional; details: read-out: IC50_Mean
[14] = target: T7, Small ubiquitin-related modifier 1; experiment: SUMO1 protein interaction blockers, potency – biochemical, fluorescence polarization, uHTS hits, dose response (AID 624382); type: functional; details: read-out: IC50_Mean
[15] = Dd2 parasite growth inhibition in erythrocytes – SYBR Green, dry powder samples, set 9, dose response (AID 1159568); type: functional, cell-based

T7 sequence (P63165 whole entry): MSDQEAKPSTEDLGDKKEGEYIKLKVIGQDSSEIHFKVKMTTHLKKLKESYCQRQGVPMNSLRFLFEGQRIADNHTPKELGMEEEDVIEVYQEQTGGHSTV
Chain of Albumin (P02769 whole entry): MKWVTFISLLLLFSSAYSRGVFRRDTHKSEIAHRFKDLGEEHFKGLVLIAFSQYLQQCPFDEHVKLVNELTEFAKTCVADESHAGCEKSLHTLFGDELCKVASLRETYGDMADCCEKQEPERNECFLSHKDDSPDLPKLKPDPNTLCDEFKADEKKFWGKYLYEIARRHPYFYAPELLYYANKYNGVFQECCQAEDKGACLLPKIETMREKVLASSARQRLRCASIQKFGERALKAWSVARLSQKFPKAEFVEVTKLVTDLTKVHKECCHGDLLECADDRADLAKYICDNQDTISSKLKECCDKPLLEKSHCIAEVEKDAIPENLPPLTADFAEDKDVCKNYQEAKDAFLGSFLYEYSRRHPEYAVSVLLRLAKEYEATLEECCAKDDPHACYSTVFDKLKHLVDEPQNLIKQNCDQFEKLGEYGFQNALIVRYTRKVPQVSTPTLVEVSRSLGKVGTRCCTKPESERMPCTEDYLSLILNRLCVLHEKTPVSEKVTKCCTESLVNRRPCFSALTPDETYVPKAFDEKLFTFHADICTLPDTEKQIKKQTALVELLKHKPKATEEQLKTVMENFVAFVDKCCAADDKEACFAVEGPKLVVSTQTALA
Chain of Photoreceptor-specific nuclear receptor (Q9Y5X4 whole entry, the tested form may be a part): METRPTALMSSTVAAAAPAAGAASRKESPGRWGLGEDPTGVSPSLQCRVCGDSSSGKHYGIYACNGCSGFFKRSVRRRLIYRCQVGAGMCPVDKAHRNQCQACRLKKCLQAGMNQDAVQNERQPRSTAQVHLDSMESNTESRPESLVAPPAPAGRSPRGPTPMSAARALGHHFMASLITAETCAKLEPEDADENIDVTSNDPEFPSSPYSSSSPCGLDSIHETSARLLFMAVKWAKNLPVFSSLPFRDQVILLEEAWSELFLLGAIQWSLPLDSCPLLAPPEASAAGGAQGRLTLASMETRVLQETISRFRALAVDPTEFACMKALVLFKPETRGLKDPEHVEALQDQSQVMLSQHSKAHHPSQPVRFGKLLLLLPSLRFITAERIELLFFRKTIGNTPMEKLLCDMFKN
Chain of Paired box protein Pax-8 (Q06710 whole entry): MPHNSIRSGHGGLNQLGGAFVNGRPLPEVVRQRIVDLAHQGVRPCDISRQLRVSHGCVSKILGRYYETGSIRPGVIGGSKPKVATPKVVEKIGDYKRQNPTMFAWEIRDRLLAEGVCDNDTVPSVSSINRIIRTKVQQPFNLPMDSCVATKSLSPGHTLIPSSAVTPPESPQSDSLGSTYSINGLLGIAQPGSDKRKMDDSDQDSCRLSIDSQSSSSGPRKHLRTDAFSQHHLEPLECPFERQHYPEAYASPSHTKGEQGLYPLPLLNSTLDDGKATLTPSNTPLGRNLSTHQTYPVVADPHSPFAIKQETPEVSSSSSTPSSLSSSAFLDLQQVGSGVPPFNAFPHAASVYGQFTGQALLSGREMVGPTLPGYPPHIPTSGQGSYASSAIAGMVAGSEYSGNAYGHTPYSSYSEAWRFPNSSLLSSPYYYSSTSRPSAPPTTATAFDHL

SMILES: CC(C)c1ccc(/C=C(\c2nc3ccccc3[nH]2)S(=O)(=O)c2ccccc2)cc1
- AC50 (Paired box protein Pax-8): 5.15 µM (active)
- AC50 [1]: 2.09 µM (active)
- AC50 [2]: 4.01 µM (active)
- EC50 (Protein RecA): 2.01 µM (active)
- AC50 [3]: 10.5 µM (active)
- IC50 [4]: 2.72 µM (active)
- AC50 (INS1): 4.38 µM (active)
- AC50 [5]: 18 µM (active)

SMILES: CC1CCCCC12NC(=O)N(CC(=O)NCCc1ccccn1)C2=O (stereo unspecified)
- IC50 [6]: > 109 µM (inactive)
- IC50 [7]: > 83.3 µM (inactive)

SMILES: Cc1cc(N2CCN(C)CC2)nc2ccc(NC(S)=NCCCN3CCN(C)CC3)cc12
- AC50 [8]: 24.6 µM (active)
- AC50 [9]: 3.59 µM (active)

SMILES: Cc1ccc2nc3c(c(Nc4ccc(O)cc4)c2c1)CCC3
- AC50 [8]: 39 µM (active)
- EC50 [10]: 8.88 µM (active)
- EC50 [11]: 1.06 µM (active)
- AC50 [9]: 20.5 µM (active)

SMILES: CC1(C)CC(=O)C(Sc2nnc(-c3ccc(O)cc3)n2CC2CCCO2)C(=O)C1 (stereo unspecified)
- IC50 [6]: > 109 µM (inactive)
- IC50 [7]: > 83.3 µM (inactive)

SMILES: CCn1c(C)nc2cc(C(=O)NNC(=S)NC(=O)c3ccccc3)ccc21
- IC50 (Albumin): > 94.1 µM (inactive)

SMILES: O=C(Nc1nc(-c2cccs2)cs1)c1ccc(Cl)cc1
- IC50 (Prothrombin): 4.5 µM (active)

SMILES: O=C(Nc1ncc(Cc2ccccc2)s1)C1=NCCN1
- IC50 [6]: > 109 µM (inactive)
- IC50 [7]: > 83.3 µM (inactive)
- IC50 (cells): 14 µM (active)

SMILES: O=C(COC(=O)c1cccnc1)Nc1ccc(F)cc1
- IC50 [6]: > 109 µM (inactive)
- IC50 [7]: > 83.3 µM (inactive)

SMILES: O=C(O)c1cnc2c([N+](=O)[O-])cccc2c1O
- IC50 (Albumin): > 94 µM (inactive)
- AC50 (Caspase-6): 5.77 µM (active)
- IC50 [12]: 5.65 µM (active)

SMILES: Cc1cc(-c2cc(NC=O)c3ncc(-c4cccc(C(=O)NCCN(C)C)c4)n3c2)cc(C)c1O
- IC50 [13]: 20.2 µM (inactive)
- AC50 [8]: 8.33 µM (active)
- IC50 [14]: > 66.6 µM (inactive)
- AC50 [9]: 1.54 µM (active)

SMILES: O=C(Nc1cc(F)ccc1F)N1CCCCN2[C@H](CO)[C@H](c3ccc(C4=CCCCC4)cc3)[C@@H]2C1
- AC50 [15]: 12.2 µM (active)

SMILES: COc1cccc(S(=O)(=O)N2CCCCN3[C@H](CO)[C@H](c4ccc(C#CCC(C)C)cc4)[C@H]3C2)c1
- AC50 [15]: 2.41 µM (active)

SMILES: C[C@@H]1CCCCO[C@@H](CN(C)S(=O)(=O)c2ccccc2)[C@H](C)CN([C@H](C)CO)C(=O)c2cc(NC(=O)Nc3ccc4c(c3)OCO4)ccc2O1
- AC50 [15]: 1.17 µM (active)

SMILES: N#C[C@H]1[C@@H](c2ccc(C3=CCCCC3)cc2)[C@@H](CO)N1C(=O)Nc1ccccc1F
- AC50 [15]: 15.8 µM (active)
